We go through 3 compounds from US8153803B2, “Compositions and methods for modulating sirtuin activity” (The General Hospital Corporation, priority 2006, dated 2012).

The target of one assay is T1, SIRT1 (Homo sapiens, UniProt Q96EB6).
T1 sequence (Q96EB6 1-747): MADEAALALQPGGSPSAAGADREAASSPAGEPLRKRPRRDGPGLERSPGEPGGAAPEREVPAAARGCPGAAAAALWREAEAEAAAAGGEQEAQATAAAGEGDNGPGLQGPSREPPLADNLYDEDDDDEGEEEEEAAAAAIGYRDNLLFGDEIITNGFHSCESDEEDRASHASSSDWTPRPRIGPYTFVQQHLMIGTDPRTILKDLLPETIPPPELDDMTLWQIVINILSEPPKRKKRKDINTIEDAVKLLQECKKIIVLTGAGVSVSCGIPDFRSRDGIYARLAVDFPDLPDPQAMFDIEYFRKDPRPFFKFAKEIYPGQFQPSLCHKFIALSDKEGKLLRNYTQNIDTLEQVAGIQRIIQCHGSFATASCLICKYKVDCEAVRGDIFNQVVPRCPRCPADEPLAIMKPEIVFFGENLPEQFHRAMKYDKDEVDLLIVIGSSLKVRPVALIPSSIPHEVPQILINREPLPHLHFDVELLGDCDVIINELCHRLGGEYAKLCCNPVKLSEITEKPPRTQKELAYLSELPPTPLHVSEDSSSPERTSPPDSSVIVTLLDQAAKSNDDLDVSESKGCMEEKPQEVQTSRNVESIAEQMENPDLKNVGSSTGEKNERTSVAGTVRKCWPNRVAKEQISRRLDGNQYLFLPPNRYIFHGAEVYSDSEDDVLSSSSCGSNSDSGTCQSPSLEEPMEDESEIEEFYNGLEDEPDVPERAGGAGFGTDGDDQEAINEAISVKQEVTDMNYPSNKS
Briefly: Fluorescent SIRT enzyme assay (recombinant enzyme, fluorescent peptide substrate). The class given is biochemical. To be noted: at compound concentrations of 40 μM or higher.

Assay [1] concerns H4 neuroglioma cells transfected with α-synuclein. Kind of assay: α-Synuclein toxicity assay (adenylate kinase release, ToxiLight). The format is cell-based, human. As to conditions: H4 cells overexpressing α-synuclein. As for the experimental part: Cell culture and transfection: HeLa cells were cultured in DMEM supplemented with 10% fetal bovine serum (FBS) and 2 mM L-glutamine. Human H4 neuroglioma cells (“H4 cells” HTB-148 from the American Type Culture Collection (ATCC), Manassas, Va., USA) were maintained in OPTI-MEM (Life Technologies, Grand Island, N.Y., USA) supplemented with 10% FBS. H4 cells were passaged 24 hours prior to transfection and plated in 24-well plates. The cells were transfected, using a pcDNA3.1hygro vector (Invitrogen) and […] (Qiagen, Chatsworth, Calif., USA) according to the manufacturer's instructions. Compounds or DMSO were added after the transfection procedure was concluded.
α-Synuclein toxicity assay: Toxicity was analyzed 24 hours after transfection by measuring the release of adenyate kinase from damaged cells into the culture medium using the ToxiLight™ kit (Cambrex, Walkersville, Md.) according to the manufaturer's protocol.

A further assay concerns HeLa cells. Briefly: Cell-based SIRT2 inhibition (α-tubulin acetylation, Western blot). Set-up: species or system human. A general note: In western blotting, separated proteins are transferred to a membrane and probed.
The test system of assay [2] is α-synuclein aggregates. Kind of assay: α-Synuclein aggregation phenotype in cells. The class given is cell-based. To be noted: correlated with functional rescue.
Assay [3] relates to α-synuclein aggregates. To be noted: previously identified (WO 05/087217); cited from earlier work.
The target in another assay is T2, SIRT2 (Homo sapiens, UniProt Q8IXJ6).
T2 construct: purchased Biomol (Plymouth Meeting, Pa.)
T2 sequence (Q8IXJ6 1-389): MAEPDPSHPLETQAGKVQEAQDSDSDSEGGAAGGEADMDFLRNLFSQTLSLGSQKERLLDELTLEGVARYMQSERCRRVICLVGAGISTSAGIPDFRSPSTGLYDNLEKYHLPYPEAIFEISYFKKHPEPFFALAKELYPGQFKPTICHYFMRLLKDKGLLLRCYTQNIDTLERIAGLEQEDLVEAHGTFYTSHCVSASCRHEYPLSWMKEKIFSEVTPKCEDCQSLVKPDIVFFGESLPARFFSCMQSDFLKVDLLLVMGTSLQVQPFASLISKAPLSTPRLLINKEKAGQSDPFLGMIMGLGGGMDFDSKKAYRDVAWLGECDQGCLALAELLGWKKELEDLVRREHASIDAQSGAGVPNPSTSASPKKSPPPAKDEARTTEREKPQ
Kind of assay: Fluorescent SIRT enzyme assay (recombinant enzyme, fluorescent peptide substrate). The class given is biochemical.

The test system of assay [4] is H4 neuroglioma cells transfected with α-synuclein. As to conditions: previously identified (WO 05/087217); cited from earlier work.

Experimental for HeLa cells: Tubulin and sirtuin Western blot analysis: Samples were separated on 10% polyacrylamide gels and transferred to a 0.45 μm PVDF membrane (Millipore, Bedford Mass.). Membranes were blocked with a 5% milk solution in PBST. Blots were then probed with antibodies to either SIRT2 (Santa Cruz A-5 at 1:100), tubulin (Sigma, St. Louis Mo., B-5-1-2) or acetylated tubulin (Sigma, 6-11B-1), both at 1:5000. Secondary detection was performed using an HRP-conjugated anti-mouse antibody (Sigma) at 1:4000, and exposed using an ECL detection kit (PerkinElmer). […] The following morning, medium was removed and fresh medium containing compound was added to the wells. After 3 hours, medium was removed and cells were washed 3× with PBS. After the final wash, 100 μL of a hypotonic lysis buffer was added to each well, and the cells were lysed at 37° C. for 5 minutes. The lysates were transferred to eppendorf tubes and centrifuged at 16,000×g for 10 minutes at room temperature. The resulting supernatant contained soluble tubulin monomers, while the pellet contained the insoluble microtubule polymers. […] SDS sample buffer was added to all the samples, followed by Western blot analysis.

In the case of `N#C/C(=C\c1ccc(-c2cc(Cl)ccc2Cl)o1)C(=O)Nc1cccc2ncccc12` [AGK2], the “inhibition of SIRT1” value on SIRT1 is “slightly inhibits”. For the same compound, the “rescue of α-synuclein toxicity” value in assay [1] was “can rescue α-synuclein toxicity”. Also, the “acetylation of α-tubulin in compound-treated cells” value in the assay with HeLa cells is recorded as “increasing the acetylation of α-tubulin”. Besides, the “α-synuclein aggregates / inclusion size” value in the assay on α-synuclein aggregates [2] was “formation of large inclusions, while reducing number of small aggregates”.
Consider `O=C(Nc1cccc([N+](=O)[O-])c1)c1cccc(S(=O)(=O)N2CCCCCC2)c1` [AK-1, 3-(azepane-1-sulfonyl)-N-(3-nitro-phenyl)-benzamide], for which the “rescue of α-synuclein toxicity” value in assay [1] is given as “prevented some α-synuclein toxicity”. Also, the “α-synuclein aggregates / inclusion size” value in the assay on α-synuclein aggregates [2] is reported as “increased inclusion size”.
In the case of `O=[N+]([O-])c1ccc(Sc2nnc(COc3ccccc3)n2-c2ccccc2)c2cccnc12` [B2], the “α-synuclein aggregates / inclusions” value in the assay with α-synuclein aggregates [3] was “decrease in the number of small α-synuclein aggregates and the formation of large inclusions”. The IC50 on SIRT2 (recombinant SIRT2, fluorescent peptide substrate, read-out: IC50 against SIRT2) was 35 µM. For the same compound, on SIRT2 (versus other sirtuins tested (SIRT1, SIRT3)), the “selectivity for SIRT2” value is “selective inhibition of SIRT2”. The “inhibition of α-synuclein-mediated cellular toxicity” value in assay [4] is given as “inhibits α-synuclein-mediated cellular toxicity”.

In general, IC50 refers to the concentration that inhibits the measured activity by half.
